According to patent publication US8486981B2, “Selective ligands for the dopamine 3 (D3) receptor and methods of using the same” (The Regents of the University of Michigan, priority 2011, dated 2013):

Tests used:
D3 and D2 receptors = experiment: Effect on pramipexole-induced yawning in rats; assay type: in vivo, rat; settings: 30-min pretreatment; 38/52 […], SB-277011A 32 mg/kg, L-741,626 1.0 mg/kg
Description: (§1) Male Sprague-Dawley rats (Harlan; Indianapolis, Ind.) weighing 250-300 g were housed three to a cage for yawning studies, and one to a cage for hypothermia studies, and maintained on a 12-h dark/light cycle with lights on at 7:00 AM in a temperature (21-23° C.) and humidity controlled environment with free access to standard Purina rodent chow and water. […] All drugs were administered subcutaneously (s.c.) in a volume of 1 ml/kg.
(§2) Observation of yawning behavior began immediately after each injection, and the total number of yawns was recorded for 60 min thereafter.
(§3) Dose-response curves for the induction of yawning and hypothermia were determined with 6 rats per group, and results expressed as the mean number of yawns, or change in body temperature 60 min post agonist injection compared to the body temperature 1 min prior to the agonist injection±standard error of the mean (SEM).

D3 dopamine receptors = target: T1, D3 dopamine receptors (Rattus norvegicus, UniProt P19020); experiment: [3H]R(+)-7-OH-DPAT binding assay, rat ventral striatum membranes; settings: rat brain; for Ki: mean ± SEM of 3-6 determinations; for Selectivity D2-like/D3 / Selectivity D1-like/D3: ratio of Ki values
T1 construct: Rat ventral striatum (nucleus accumbens and olfactory tubercles) was prepared in assay buffer; tissue Pel-Freez, Rogers, Ark; host or cells: rat ventral striatum (nucleus accumbens and olfactory tubercles) membranes
T1 sequence (P19020 whole entry): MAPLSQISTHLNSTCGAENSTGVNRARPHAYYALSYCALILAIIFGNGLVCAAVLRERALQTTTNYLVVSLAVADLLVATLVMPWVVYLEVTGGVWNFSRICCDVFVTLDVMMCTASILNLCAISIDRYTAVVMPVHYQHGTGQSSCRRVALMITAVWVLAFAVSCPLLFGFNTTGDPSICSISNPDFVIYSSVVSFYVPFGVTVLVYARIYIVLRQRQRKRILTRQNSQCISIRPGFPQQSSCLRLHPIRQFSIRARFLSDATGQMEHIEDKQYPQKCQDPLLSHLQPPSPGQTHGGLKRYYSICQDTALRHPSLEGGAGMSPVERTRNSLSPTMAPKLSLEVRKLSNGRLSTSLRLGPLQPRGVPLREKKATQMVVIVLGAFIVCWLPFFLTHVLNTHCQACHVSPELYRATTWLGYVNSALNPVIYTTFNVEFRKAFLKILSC
Description: All the synthesized compounds were determined for the binding affinities at the D3, D1-like and D2-like receptors in membranes prepared from the brains of adult, male Sprague-Dawley rats (Pel-Freez, Rogers, Ark.). All compounds were dissolved in 100% EtOH at a concentration of 5 mM.
[^3H]R(+)-7-OH-DPAT Binding Assays.
[^3H]R-(+)-7-OH-DPAT binding assays for the D3 dopamine receptors were performed as previously described in detail.^(44),(45) Rat ventral striatum (nucleus accumbens and olfactory tubercles) was prepared in assay buffer (50 mM Tris, 1 mM EDTA; pH 7.4 at 23° C.) to yield a final concentration of 10 mg original wet weight (o.w.w.)/ml. […] Nonspecific binding was defined by 1 μM spiperone. Assay tubes were incubated at 23° C. for 90 min. The reaction was terminated by rapid vacuum filtration.

D3 receptor = target: T2, D3 receptor (Rattus norvegicus, UniProt P19020); experiment: Induction of yawning behavior in rats; assay type: in vivo; settings: for Emax: rat, read-out: Increase in yawning relative to maximum effect of pramipexole at 0.1 mg/kg, doses between 0.0032 and 3.2 mg/kg; for Emax / Lowest dose active (significant increase in yawning): rats; for Lowest dose active (significant increase in yawning): s.c., yawns/60 min; for In vivo functional activity at the D3 receptor: yawning assays in rats
T2 construct: evaluated for the effect in the induction of yawning and hypothermia in rats; tissue Harlan; Indianapolis, Ind; host or cells: living male Sprague-Dawley rats
T2 sequence (P19020 whole entry): as above
Description: as §1
Yawning behavior was defined as a prolonged (˜1 sec.), wide opening of the mouth followed by a rapid closure. On the day of testing, rats were transferred from their home cage to a test chamber (48 cm×23 cm×20 cm clear rodent cage with standard cob bedding), and allowed to habituate to the chamber for a period of 30 min prior to a sterile water injection which was administered 30 min prior to the injection of the compound of interest. Yawns were scored for a period of 60 min thereafter. Each compound was assessed in groups of 6 rats, with each rat receiving a single dose of one compound. Food and water were unavailable during test sessions, and all experiments were conducted between the hours of 12:00 PM and 6:00 PM with at least 72 hrs between test sessions to allow for drug washout.
as §3

D2 receptor [1] = target: T3, D2 receptor (Rattus norvegicus, UniProt P61169); experiment: Hypothermia assay (core body temperature) in rats; assay type: in vivo; settings: 10.0 mg/kg s.c.
T3 construct: evaluated for the effect in the induction of yawning and hypothermia in rats; tissue Harlan; Indianapolis, Ind; host or cells: living male Sprague-Dawley rats
T3 sequence (P61169 whole entry): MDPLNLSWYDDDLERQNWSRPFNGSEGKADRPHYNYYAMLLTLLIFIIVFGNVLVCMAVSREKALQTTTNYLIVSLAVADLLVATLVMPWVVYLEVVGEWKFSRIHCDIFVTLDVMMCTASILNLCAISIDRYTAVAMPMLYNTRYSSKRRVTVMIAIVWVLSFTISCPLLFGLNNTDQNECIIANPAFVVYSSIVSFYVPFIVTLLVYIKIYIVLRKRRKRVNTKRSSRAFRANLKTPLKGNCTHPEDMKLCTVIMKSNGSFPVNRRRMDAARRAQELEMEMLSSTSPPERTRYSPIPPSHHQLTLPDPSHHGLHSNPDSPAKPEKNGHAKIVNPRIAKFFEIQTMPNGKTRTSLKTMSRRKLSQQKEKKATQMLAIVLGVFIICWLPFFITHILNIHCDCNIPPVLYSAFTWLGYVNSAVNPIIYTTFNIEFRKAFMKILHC
Description: as §1
Rats were anesthetized with ketamine/xylazine (100/10 mg/kg; i.p.) and their abdominal area was shaved and cleaned with alternating betadine and alcohol swabs prior to surgical implantation of radio-telemetric probes (E-4000 E-Mitter, Mini-Mitter, Bend, Oreg., USA). […]
On the day of testing, rats were weighed and returned to their home cages, which were placed onto a receiving pad (ER-4000 Receiver, Mini-mitter, Bend, Oreg.) to allow for the collection of core body temperature. Temperature measurements were taken every min with at least 30 min of baseline temperature data recorded prior to the administration of antagonist or vehicle. Agonist or vehicle injections were administered 30 min thereafter, and core body temperature was recorded for a period of at least the next 60 min. […]

D2 receptor [2] = target: T3, D2 receptor; experiment: Effect on pramipexole-induced hypothermia in rats; assay type: in vivo; settings: pretreatment 10.0 mg/kg; pramipexole 1.0 mg/kg
Description: as §1, §2, §3

Solubility in water = assay type: physicochemical

Compound | Ki (D3 dopamine receptors) [nM] | Selectivity D2-like/D3 (D3 dopamine receptors) | Selectivity D1-like/D3 (D3 dopamine receptors) | also measured
OC1(c2ccc(Cl)cc2)CCN(Cc2c[nH]c3ccccc23)CC1 [L-741,626, reference compound] | – | – | – | Effect on yawning at […] pramipexole (D3 and D2 receptors): reversed the inhibition of yawning; Effect on yawning induced by 0.1 mg/kg pramipexole (D3 and D2 receptors): failed to alter the induction of yawning
CCCN(CCC1CCC(NS(=O)(=O)c2cnccc2Cl)CC1)C1CCc2nc(N)sc2C1 (stereo in doubt) [Compound 53, Trans-N-(4-2-(((s)-2-amino-4,5,6,7-tetrahydrobenzo[d]thiazol-6-yl)(propyl)amino)ethylcyclohexyl)-4-chloropyridine-3-sulfonamide] | 0.93 | – | – | –
CCCN(CCC1CCC(NC(=O)c2cccc(-c3noc(C)n3)c2)CC1)C1CCc2nc(N)sc2C1 (stereo in doubt) [Compound 38, Trans-N-(4-2-(((s)-2-amino-4,5,6,7-tetrahydrobenzo[d]thiazol-6-yl)(propyl)amino)ethylcyclohexyl)-3-(5-methyl-1,2,4-oxadiazol-3-yl)benzamide] | 0.73 | 494 | – | Emax (D3 receptor): 25%; Lowest dose active (significant increase in yawning) (D3 receptor): 3.2 µg/kg; In vivo functional activity at the D3 receptor (D3 receptor): partial agonists at the D3 receptor; Induction of hypothermia (D2 receptor [1]): significant effect in induction of hypothermia; Effect on yawning induced by 0.1 mg/kg pramipexole (D3 and D2 receptors): effectively inhibited; Effect on hypothermic effects of pramipexole (D2 receptor [2]): slight, but significant reductions; solubility (Solubility in water): > 100 mg/mL
CCCN(CCC1CCC(NS(=O)(=O)c2ccc(Cl)nc2)CC1)C1CCc2nc(N)sc2C1 (stereo in doubt) [Compound 51, Trans-N-(4-2-(((s)-2-amino-4,5,6,7-tetrahydrobenzo[d]thiazol-6-yl)(propyl)amino)ethylcyclohexyl)-6-chloropyridine-3-sulfonamide] | 0.63 ± 0.04 | – | 12,933 | –
CCCN(CCC1CCC(NS(=O)(=O)c2ccccc2Cl)CC1)C1CCc2nc(N)sc2C1 (stereo in doubt) [Compound 47, Trans-N-(4-2-(((s)-2-amino-4,5,6,7-tetrahydrobenzo[d]thiazol-6-yl)(propyl)amino)ethylcyclohexyl)-2-chlorobenzenesulfonamide] | 0.68 ± 0.06 | – | – | –
CCCN(CCC1CCC(NS(=O)(=O)c2ccc(OC)cc2)CC1)C1CCc2nc(N)sc2C1 (stereo in doubt) [Compound 44, Trans-N-(4-2-(((s)-2-amino-4,5,6,7-tetrahydrobenzo[d]thiazol-6-yl)(propyl)amino)ethylcyclohexyl)-4-methoxybenzenesulfonamide] | 0.78 | 49 | 27,487 | –
CCCN(CCC1CCC(NC(=O)c2cccc(-c3noc(CC)n3)c2)CC1)C1CCc2nc(N)sc2C1 (single isomer, unassigned) [Compound 37] | 1.5 | 339 | 3,448 | –
CCCN(CCC1CCC(NC(=O)c2ccc(-c3noc(C(C)C)n3)cc2)CC1)C1CCc2nc(N)sc2C1 (single isomer, unassigned) [Compound 35] | 2 ± 0.19 | – | 5,366 | –
CCCN(CCC1CCC(NS(=O)(=O)c2cccc(Cl)c2)CC1)C1CCc2nc(N)sc2C1 (stereo in doubt) [Compound 45, Trans-N-(4-2-(((s)-2-amino-4,5,6,7-tetrahydrobenzo[d]thiazol-6-yl)(propyl)amino)ethylcyclohexyl)-3-chlorobenzenesulfonamide] | 1.1 ± 0.1 | – | – | –
N#Cc1ccc2c(c1)CCN(CCC1CCC(NC(=O)c3ccnc4ccccc34)CC1)C2 (stereo not drawn) [SB-277011A, reference compound] | – | – | – | Effect on yawning at […] pramipexole (D3 and D2 receptors): inhibited the induction of yawning; Effect on yawning induced by 0.1 mg/kg pramipexole (D3 and D2 receptors): inhibited the induction of yawning
CCCN(CCC1CCC(NS(=O)(=O)c2cccc(F)c2)CC1)C1CCc2nc(N)sc2C1 (stereo in doubt) [Compound 43, Trans-N-(4-2-(((s)-2-amino-4,5,6,7-tetrahydrobenzo[d]thiazol-6-yl)(propyl)amino)ethylcyclohexyl)-3-fluorobenzenesulfonamide] | 0.72 | – | – | –
CCCN(CCC1CCC(NC(=O)c2ccc(-c3noc(CC)n3)cc2)CC1)C1CCc2nc(N)sc2C1 (stereo in doubt) [Compound 34, Trans-N-(4-2-(((s)-2-amino-4,5,6,7-tetrahydrobenzo[d]thiazol-6-yl)(propyl)amino)ethylcyclohexyl)-4-(5-ethyl-1,2,4-oxadiazol-3-yl)benzamide] | 2.1 ± 0.15 | – | 8,381 | –
CCCN(CCC1CCC(NS(=O)(=O)c2ccc(Cl)cc2)CC1)C1CCc2nc(N)sc2C1 (stereo in doubt) [Compound 46, Trans-N-(4-2-(((s)-2-amino-4,5,6,7-tetrahydrobenzo[d]thiazol-6-yl)(propyl)amino)ethylcyclohexyl)-4-chlorobenzenesulfonamide] | 0.95 ± 0.01 | 75 | 8,754 | –
CCCN(CCC1CCC(NS(=O)(=O)c2cccnc2Cl)CC1)C1CCc2nc(N)sc2C1 (stereo in doubt) [Compound 52, Trans-N-(4-2-(((s)-2-amino-4,5,6,7-tetrahydrobenzo[d]thiazol-6-yl)(propyl)amino)ethylcyclohexyl)-2-chloropyridine-3-sulfonamide] | 0.38 | 451 | – | Emax (D3 receptor): 25%; Lowest dose active (significant increase in yawning) (D3 receptor): 3.2 µg/kg; In vivo functional activity at the D3 receptor (D3 receptor): partial agonists at the D3 receptor; Induction of hypothermia (D2 receptor [1]): significant effect in induction of hypothermia; Effect on yawning induced by 0.1 mg/kg pramipexole (D3 and D2 receptors): effectively inhibited; Effect on hypothermic effects of pramipexole (D2 receptor [2]): slight, but significant reductions
CCCN(CCC1CCC(NC(=O)c2ccc(-c3noc(C)n3)cc2)CC1)C1CCc2nc(N)sc2C1 (stereo in doubt) [Compound 33, Trans-N-(4-2-(((s)-2-amino-4,5,6,7-tetrahydrobenzo[d]thiazol-6-yl)(propyl)amino)ethylcyclohexyl)-4-(5-methyl-1,2,4-oxadiazol-3-yl)benzamide] | 1.3 | 345 | 27,041 | –
CCCN(CCC1CCC(NC(=O)c2ccc(-c3noc(C4CC4)n3)cc2)CC1)C1CCc2nc(N)sc2C1 (single isomer, unassigned) [Compound 36] | 3.5 ± 0.57 | – | 3,245 | –
